# How the values were obtained:
# [1] = Post-marketing spontaneous and clinical serious adverse event hepatic data (LEAP), 2 years after first approval; format: in vivo, human
# Excerpt: During the 2-year period since ambrisentan was first approved, the vast majority of patient exposure had been in the U.S. through Letairis Education and Access Program (LEAP). As of 14 Jun. 2009, a total of 6,622 patients had enrolled in LEAP and received at least one shipment of ambrisentan. Approximately half of the patients for whom duration of therapy was available received ambrisentan for a period of at least 6 months, resulting in a total of 3,847 patient-years of exposure. Exposure duration is depicted in FIG. 3 showing LEAP patients by exposure duration.
# A total of 120 post-marketing spontaneous reports were identified for the 2-year period (15 Jun. 2007 through 14 Jun. 2009) where 119 reports were received via LEAP in the U.S. and the remaining one was received from Germany (outside of LEAP). As of 31 Mar. 2009, there were […] of exposure to ambrisentan. All reports were actively followed up in accordance with Gilead Drug Safety procedures to obtain all important information needed to assess a potential relationship with ambrisentan therapy, particularly laboratory data, medical history and concurrent medications. All reports included potential alternative causes for the hepatic events which are unrelated to ambrisentan therapy, such as right-sided heart failure due to underlying PAH, other co-morbidities or concurrent medications.
# Of the 120 spontaneous reports, 55 reports were medically-confirmed suspected adverse reaction reports. A total of 28 cases were considered “clinically significant hepatic events” which are defined as (1) ALT and/or AST increases >3×ULN, (2) serum total bilirubin increases >2×ULN, (3) any hepatic event associated with potential signs/symptoms of hepatic disease, or (4) any clinically significant hepatic event term (e.g., liver failure). These cases included 24 reports of serum aminotransferase (ALT/AST) increases >3×ULN; 3 reports of elevated serum total bilirubin>2×ULN; and 1 report of elevated serum aminotransferases with signs and symptoms, but AST and ALT values were not provided. Of these 28 cases, there were 3 reports of both elevated ALT/AST>3×ULN and serum total bilirubin>2×ULN. However, these reports included probable alternate causes of the hepatic events such as sickle cell disease in a patient with baseline serum total bilirubin of ‘7.7’, suspected gall bladder disease in a patient who developed increased serum total bilirubin (5×ULN) and alkaline phosphatase (3.3×ULN) 11 days before an increase in ALT to 3.1×ULN, and documented cardiogenic shock and right-sided heart failure due to PAH.
# There were 7 drug-related serious adverse event (SAE) reports from clinical studies which had evidence of alternative causes of the hepatic events or were poorly documented. Six of the reports were considered clinically significant, including one case where ALT/AST was >3×ULN and serum total bilirubin>2×ULN. However, probable causes of the hepatic events in this case included concurrent right heart failure, diagnosed after the patient admitted missing several doses of ambrisentan and 3-4 days of sildenafil and furosemide and with a baseline serum total bilirubin of 1.7×ULN.
# The estimated post-marketing incidence rate of hepatic events with ambrisentan in the U.S. during the 2-year post-marketing period is 1.8% (119/6622), detected through LEAP. This rate is consistent with the background rate of placebo-treated PAH patients in clinical trials evaluating ERAs which appeared to have an incidence rate of 2%-3% over a 12- to 24-week period.
# [2] = test system: patients with PAH (WHO Group 1); assay: ARIES-2 12-week placebo-controlled study; format: in vivo, human
# Protocol: Two 12-week, randomized, double-blind, placebo-controlled, multicenter studies were conducted in 393 patients with PAH (WHO Group 1). The two studies were identical in design except for the doses of ambrisentan and the geographic region of the investigational sites. ARIES-1 (Ambrisentan in Pulmonary Arterial Hypertension, Randomized, Double-Blind, Placebo-Controlled, Multicenter, Efficacy Studies) compared once-daily doses of 5 mg and 10 mg ambrisentan to placebo, […] In both studies, ambrisentan or placebo was added to current therapy, which could have included a combination of anticoagulants, diuretics, calcium channel blockers, or digoxin, but not epoprostenol, treprostinil, iloprost, bosentan, or sildenafil. The primary study endpoint was 6-minute walk distance. In addition, clinical worsening, WHO functional class, dyspnea, and SF-36® Health Survey were assessed.
# Patients had idiopathic or heritable PAH (64%) or PAH associated with connective tissue diseases (32%), HIV infection (3%), or anorexigen use (1%). There were no patients with PAH associated with congenital heart disease.
# Patients had WHO functional class I (2%), II (38%), III (55%), or IV (5%) symptoms at baseline. The mean age of patients was 50 years, 79% of patients were female, and 77% were Caucasian.
# Clinical Worsening: Time to clinical worsening of PAH was defined as the first occurrence of death, lung transplantation, hospitalization for PAH, atrial septostomy, study withdrawal due to the addition of other PAH therapeutic agents or study withdrawal due to early escape. Early escape was defined as meeting two or more of the following criteria: a 20% decrease in the 6-minute walk distance; an increase in WHO functional class; worsening right ventricular failure; rapidly progressing cardiogenic, hepatic, or renal failure; or refractory systolic hypotension.
# ETA receptor = target: T1, ETA receptor (Homo sapiens, UniProt P25101); details: read-out: affinity for the ETA receptor; cited from earlier work
# T1 sequence (P25101 21-427): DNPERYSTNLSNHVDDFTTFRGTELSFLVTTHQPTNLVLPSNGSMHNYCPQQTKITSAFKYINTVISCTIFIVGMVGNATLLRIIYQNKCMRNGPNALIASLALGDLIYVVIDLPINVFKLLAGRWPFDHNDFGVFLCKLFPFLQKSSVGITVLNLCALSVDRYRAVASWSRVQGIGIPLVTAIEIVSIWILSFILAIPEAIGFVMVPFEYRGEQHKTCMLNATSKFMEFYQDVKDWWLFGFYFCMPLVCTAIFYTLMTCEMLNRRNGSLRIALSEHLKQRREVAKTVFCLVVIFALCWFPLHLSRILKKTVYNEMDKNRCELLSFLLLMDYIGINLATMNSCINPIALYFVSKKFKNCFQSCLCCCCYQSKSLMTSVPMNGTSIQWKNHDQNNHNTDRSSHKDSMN
# [3] = among the 28 clinically significant cases
# [4] = ARIES-2, 5 mg (N = 64), 12 weeks
# [5] = ARIES-2, ambrisentan N = 127, 12-week treatment, intention-to-treat
smiles,measurement,setting,value
"COC(c1ccccc1)(c1ccccc1)[C@H](Oc1nc(C)cc(C)n1)C(=O)O [Ambrisentan, (25)-2-[(4,6-dimethylpyrimidin-2-yl)oxy]-3-methoxy-3,3-diphenylpropanoic acid]","post-marketing spontaneous reports of hepatic events, number",[1]; 15 Jun. 2007 through 14 Jun. 2009,120
same,estimated post-marketing incidence rate of hepatic events,"[1]; U.S., 2-year post-marketing period, LEAP (119/6622)",1.8%
same,"reports of both elevated ALT/AST >3×ULN and serum total bilirubin >2×ULN, number",[1]; [3],3
same,"reports of elevated serum total bilirubin >2×ULN, number",[1]; [3],3
same,"reports of serum aminotransferase (ALT/AST) increases >3×ULN, number",[1]; [3],24
same,"drug-related serious adverse event (SAE) reports from clinical studies, number",[1]; hepatic events,7
same,"cases considered clinically significant hepatic events, number",[1]; of 55 medically-confirmed suspected adverse reaction reports,28
same,incidence of hepatic events (adverse events and elevated aminotransferase levels),[1]; post-marketing data,approximately 2%
same,Placebo-adjusted mean change from baseline in 6-minute walk distance,[2]; [4],32 meters
same,Placebo-adjusted median change from baseline in 6-minute walk distance,[2]; [4],30 meters
same,Mean change from baseline in 6-minute walk distance,"[2]; ARIES-2, 5 mg (N = 64), 12 weeks, mean ± SD",22 ± 83 meters
same,"Clinical worsening, %",[2]; [5],6%
same,"Clinical worsening, no.",[2]; [5],8
same,"Time to clinical worsening, hazard ratio","[2]; ARIES-2, versus placebo",0.30
same,Ki,ETA receptor,~0.012 nM
